{
  "source": "patent US20040131694A1",
  "about": "“Pharmaceutical composition for the medical treatment of the benign prostatic hyperplasia, its preparation method and its therapeutic application” (H.P.B. S.A., priority 2002, published 2004)",
  "origin": "cited, not measured here",
  "system": "Bladder outlet obstruction due to Benign Prostatic Hyperplasia",
  "key": {"[1]": {"settings": "Up to 24 weaks of treatment, Tammela and Kontturi 1993"}},
  "data": [
    {"smiles": "CC(C)(C)NC(=O)[C@H]1CC[C@H]2[C@@H]3CC[C@H]4NC(=O)C=C[C@]4(C)[C@H]3CC[C@]12C", "note": "[Finasteride]", "values": [
      {"measurement": "Daytime frequency", "setting": "[1]", "value": 1.4},
      {"measurement": "Dysuria", "setting": "[1]", "value": 0.4},
      {"measurement": "Hesitancy", "setting": "[1]", "value": 0.5},
      {"measurement": "Intermittence", "setting": "[1]", "value": 0.7},
      {"measurement": "Nocturia", "setting": "[1]", "value": 1.5},
      {"measurement": "Prostatic specific antigen (ng. %)", "setting": "[1]", "value": 2.9, "unit": "ng. %"},
      {"measurement": "Prostatic volume (grs.)", "setting": "[1]", "value": 35, "unit": "gr."},
      {"measurement": "Q max.", "setting": "[1]", "value": 10.3, "unit": "mL/s"},
      {"measurement": "Residual urine volume (ml.)", "setting": "[1]", "value": 76, "unit": "cc"},
      {"measurement": "Sensation of incomplete Voiding", "setting": "[1]", "value": 0.9},
      {"measurement": "Terminal dribbling", "setting": "[1]", "value": 0.4},
      {"measurement": "Total points (I-PSS)", "setting": "[1]", "value": 7.1, "unit": "points"},
      {"measurement": "Urgency", "setting": "[1]", "value": 0.7},
      {"measurement": "Weak stream", "setting": "[1]", "value": 0.6},
      {"measurement": "Residual effect", "setting": "treatment must be continuous", "value": "none"}
    ]}
  ]
}
